Source: patent US12145947B2, “Pyrimidine based modulators and uses thereof” (Quanta Therapeutics, Inc., priority 2022, dated 2024)
pIC50: −log10 of the molar value.

How the values were obtained:
[1] = target: T1, GST-tagged KRAS-G12D (2-169) (Homo sapiens, UniProt P01116, G12D); experiment: Nucleotide exchange assay (NEA), SOS-mediated, HTRF, KRAS G12D; assay type: biochemical; conditions: Table 4; IC50 extracted at 30 min
T1 construct: GST-tagged KRAS-G12D (2-169, Reaction Biology, MSC-11-539); purchased Reaction Biology MSC-11-539 (KRAS G12D); MSC-11-502 (SOS1cat)
Description: This activity is tightly regulated by GTPase activating proteins (GAPs) and guanine nucleotide exchange factors (GEFs). GEFs, such as SOS1/2, activate Ras proteins by exchanging GDP for GTP, thus returning Ras to its active conformation (Simanshu, Nissley, & McCormick, 2017). […] Homogenous time resolved fluorescence (HTRF) was used to detect SOS-mediated binding of a fluorescent GTP analog, GTP-DY-647P1 (Jena Biosciences NU-820-647P1) to GST-tagged KRAS-G12D (2-169, Reaction Biology, MSC-11-539) or to GST-tagged KRAS-G12V (2-169, Reaction Biology, MSC-11-540).
GST-tagged KRAS-G12D (2-169) and anti-GST MAb Tb Cryptate Gold (CisBio 61GSTTLB) were diluted into assay buffer (20 mM HEPES, pH 7.3, 150 mM NaCl, 5 mM MgCl2, 0.05% BSA 0.0025% NP40, 1 mM DTT) to prepare a 2.5× donor solution. 5× compound was added to the protein mixture and incubated for 1 h at RT. 2.5× acceptor solution containing SOSIcat (564-1049, Reaction Biology MSC-11-502) and GTP-DY-647P1 were then added to the donor KRAS mixture such that the final concentration of the reaction contained 5 nM GST-tagged KRAS-G12D (2-169), 20 nM SOScat, and 150 nM GTP. The reaction was monitored using at RT with the Envision multimode plate reader (Ex/Em 337/665, […]) up to 90 minutes at 5 minute intervals. To monitor KRAS-G12V Sos-mediated nucleotide exchange, 80 nM SOS was added to reaction instead of 20 nM. All other components were the same as previously described. Data was blanked to reactions without SOS1 and % inhibition was calculated such that DMSO only=0% and blank=100%. Curve fitting was done using a 4 parameter fit. Reported IC50 values were extracted at 30 min and 90 min for the KRAS-G12D and KRAS-G12V assays, respectively.
Curve fitting was done using a 4 parameter fit. NEA KRAS G12D IC50 (uM) values of selected compounds are depicted in Table 2 with compounds having a value <0.01 uM as ++++; >0.01 uM to 0.1 uM as +++; >0.1 uM to 1 uM as ++; >1 uM to 20 uM as +; and >20 uM as NA.

KRAS G12D/RAF1 = target: T2, KRAS G12D/RAF1 (Homo sapiens, UniProt P01116, G12D); experiment: Protein-protein interaction (PPI) HTRF assay KRAS G12D/RAF1; assay type: binding; conditions: Table 4
T2 construct: His6-MBP (N, cleaved yes); made in house; host or cells: E. coli
Protocol: Biotinylated KRAS wt and KRAS G12DNV proteins were expressed and purified in conditions similar to those previously reported (Tran, et al., 2021) (Zhang, et al., 2020). Briefly, KRAS (1-169) proteins were expressed in E. coli at 18° C. with an upstream TEV cleavage site (ENLFYQS (SEQ ID NO: 6)) followed an Avi tag sequence ([…] (SEQ ID NO: 7)). KRAS expression constructs contained both a His6 (SEQ ID NO: 8) and maltose-binding protein (MBP) tags at the N-terminus for Ni-NTA column purification prior to overnight TEV cleavage and MBP column purification. The avi-tagged NRAS expression construct contained both a His6 tag (SEQ ID NO: 8) and SUMO cleavage sige at the N-terminus for Ni-NTA column purification followed by His-ULPi digestion overnight. All avi-tagged RAS proteins were dialyzed into buffer containing ATP, biotin, and BirA followed by purification over a second Ni-NTA column and then run over a size exclusion HiLoad™ 26/600 Superdex™ column in 20 mM HEPES, pH 7.5, 300 mM NaCl, 5 mM MgCl2, and 1 mM TCEP. Fractions containing the protein of interest were pooled, concentrated, and confirmed by intact mass spectrometry. To prepare ‘GTP’ loaded KRAS and NRAS, biotinylated KRAS or NRAS was nucleotide exchanged from GDP-bound protein to GppNHp-bound (Jena Biosciences, NU-401-50) protein in the presence of alkaline phosphatase and excess GppNHp as previously described and the resulting nucleotide content was confirmed by HPLC reverse phase analytical chromatography (Donohue, et al., 2019) (Tran, et al., 2021).
His-tagged RAF1 (52-131) was similarly expressed in E. coli at 18° C. overnight with an upstream TEV cleavage site. His-tagged RAF1 expression construct contained both a His6 (SEQ ID NO: 8) and MBP tags at the N-terminus for Ni-NTA column purification followed by MBP-tagged TEV digestion overnight. RAF1 protein samples were further purified over a MBP column followed by a Ni-NTA column and a second MBP column. The fractions containing the protein of interest were pooled, concentrated, and further purified over a HiLoad™ 16/600 Superdex™ 75 pg size exclusion column into 20 mM HEPES, pH8.0, 200 mM NaCl, 5 mM TCEP.
When RAS proteins are in the active GTP-bound conformation, they bind the effector protein RAF1 at the N-terminus Ras-binding domain (RBD, residues 52-131) (Tran, et al., 2021). Homogenous time resolved fluorescence (HTRF) was used to monitor the interaction between wt or mutant KRAS and RAF1 or wt NRAS and RAFT. Compounds were assayed in the presence of KRAS G12D/V and RAF1 versus wt KRAS to assess activity against mutant and w.t. KRAS. Similarly, compounds were then assayed in the presence of w.t. NRAS and RAF1 to assess RAS isoform selectivity. In all assay formats, His-tagged RAF1 protein was incubated with the HTRF donor, anti-6His (“6His” disclosed as SEQ ID NO: 8) Tb Cryptate gold (Cisbio 61DB10RDF), and biotinylated RAS proteins were incubated with the HTRF acceptor, streptavidin-d2 (CisBio 610SADLA). The intensity of the fluorescence signal emitted is proportional to binding between the two proteins. The donor solution was prepared by mixing 16 nM His-tagged RAF1 in protein dilution buffer with 1:100 anti-6His (“6His” disclosed as SEQ ID NO: 8) Tb cryptate in PPI-Terbium detection buffer. 16 nM biotinylated RAS protein was diluted into protein dilution buffer (50 mM Tris-HCl pH 7.5, 150 mM NaCl, 0.1 mM MgCl2, 1 mM TCEP, 0.005% Tween20) and mixed with 1:2000 Streptavidin-d2 diluted in PPI-Terbium detection buffer (CisBio 61DBTORDF). 50× compound in DMSO was mixed with 16 nM KRAS-acceptor solution and incubated for 30 minutes at room temperature. After compound pre-incubation with KRAS, the RAF1 donor solution was added to the KRAS-acceptor solution and incubated for 1 hour at room temperature. The fluorescence signal emitted was monitored at 665 nm and 615 nm using an Envision multimode plate reader. […]

T2 sequence (P01116 with tags, fused parts or gaps isoform P01116-2 G12D): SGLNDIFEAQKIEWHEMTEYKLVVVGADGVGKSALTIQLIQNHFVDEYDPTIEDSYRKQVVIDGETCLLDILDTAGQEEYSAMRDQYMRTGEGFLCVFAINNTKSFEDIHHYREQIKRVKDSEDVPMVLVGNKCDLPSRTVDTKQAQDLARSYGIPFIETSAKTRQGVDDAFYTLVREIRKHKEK
T1 sequence (P01116 2-169 isoform P01116-2 G12D): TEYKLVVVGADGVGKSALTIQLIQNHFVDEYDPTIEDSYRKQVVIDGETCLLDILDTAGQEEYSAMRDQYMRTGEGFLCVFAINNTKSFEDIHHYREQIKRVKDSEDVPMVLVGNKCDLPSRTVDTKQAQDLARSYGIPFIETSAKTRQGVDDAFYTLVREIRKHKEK

SMILES | pIC50 [1] | pIC50 (KRAS G12D/RAF1)
N#Cc1c(N2CCn3nncc3C2)nc(OC[C@@]23CCCN2C[C@H](F)C3)nc1N1CC2(CCc3sc(N)c(C#N)c32)C1 [Compound 55, 2-amino-1′-[5-cyano-6-(6,7-dihydro-4H-triazolo[1,5-a]pyrazin-5-yl)-2-[[(2R,8S)-2-fluoro-1,2,3,5,6,7-hexahydropyrrolizin-8-yl]methoxy]pyrimidin-4-yl]spiro[5,6-dihydrocyclopenta[b]thiophene-4,3′-azetidine]-3-carbonitrile] | 6.00 to 7.00 | 4.00 to 5.00
N#Cc1c(N2C[C@H]3CC[C@@H](C2)N3)nc(OCC2(CN3CCC(F)(F)CC3)CC2)nc1N1CC2(CCCc3sc(N)c(C#N)c32)C1 [Compound 56, 2-amino-1′-[5-cyano-6-[(1R,5S)-3,8-diazabicyclo[3.2.1]octan-3-yl]-2-[[1-[(4,4-difluoro-1-piperidyl)methyl]cyclopropyl]methoxy]pyrimidin-4-yl]spiro[6,7-dihydro-5H-benzothiophene-4,3′-azetidine]-3-carbonitrile] | > 8.00 | 6.00 to 7.00
CN1CCc2c(cccc2Oc2nc(N3C[C@H]4CC[C@@H](C3)N4)c(C#N)c(N3CC4(CCc5sc(N)c(C#N)c54)C3)n2)C1 [Compound 57, 2-amino-1′-[5-cyano-2-[(2-methyl-3,4-dihydro-1H-isoquinolin-5-yl)oxy]-6-[(1R,5S)-3,8-diazabicyclo[3.2.1]octan-3-yl]pyrimidin-4-yl]spiro[5,6-dihydrocyclopenta[b]thiophene-4,3′-azetidine]-3-carbonitrile] | 4.70 to 6.00 | 4.00 to 5.00
N#Cc1c(N2C[C@H]3CC[C@@H](C2)N3)nc(OCC2(CN3CCC(F)(F)C3)CC2)nc1N1CC2(CCc3sc(N)c(C#N)c32)C1 [Compound 58, 2-amino-1′-[5-cyano-6-[(1R,5S)-3,8-diazabicyclo[3.2.1]octan-3-yl]-2-[[1-[(3,3-difluoropyrrolidin-1-yl)methyl]cyclopropyl]methoxy]pyrimidin-4-yl]spiro[5,6-dihydrocyclopenta[b]thiophene-4,3′-azetidine]-3-carbonitrile] | > 8.00 | 5.00 to 6.00
CO/N=C1/CCCN(c2nc(OC[C@@]34CCCN3C[C@H](F)C4)nc(N3CC4(CCc5sc(N)c(C#N)c54)C3)c2C#N)CC1 [Compound 59, 2-amino-1′-[5-cyano-2-[[(2R,8S)-2-fluoro-1,2,3,5,6,7-hexahydropyrrolizin-8-yl]methoxy]-6-[(4Z)-4-methoxyiminoazepan-1-yl]pyrimidin-4-yl]spiro[5,6-dihydrocyclopenta[b]thiophene-4,3′-azetidine]-3-carbonitrile] | 6.00 to 7.00 | 4.00 to 5.00
Cc1nnc(-c2nn3c(c2Cl)CN(c2nc(OC[C@@]45CCCN4C[C@H](F)C5)nc(N4CC5(CCc6sc(N)c(C#N)c65)C4)c2C#N)CCC3)n1C [Compound 60, 2-amino-1′-[6-[3-chloro-2-(4,5-dimethyl-1,2,4-triazol-3-yl)-4,6,7,8-tetrahydropyrazolo[1,5-a][1,4]diazepin-5-yl]-5-cyano-2-[[(2R,8S)-2-fluoro-1,2,3,5,6,7-hexahydropyrrolizin-8-yl]methoxy]pyrimidin-4-yl]spiro[5,6-dihydrocyclopenta[b]thiophene-4,3′-azetidine]-3-carbonitrile] | > 8.00 | 5.00 to 6.00
N#Cc1c(N2C[C@H]3CC[C@@H](C2)[C@@H]3N)nc(OCC2(CN3CCOCC3)CC2)nc1N1CC2(CCc3sc(N)c(C#N)c32)C1 [Compound 61, 2-amino-1′-[6-[(1R,5S)-8-amino-3-azabicyclo[3.2.1]octan-3-yl]-5-cyano-2-[[1-(morpholinomethyl)cyclopropyl]methoxy]pyrimidin-4-yl]spiro[5,6-dihydrocyclopenta[b]thiophene-4,3′-azetidine]-3-carbonitrile] | 7.00 to 8.00 | 6.00 to 7.00
N#Cc1cnc(OCC2(CN3CCOCC3)CC2)nc1N1CC2(CCCc3sc(N)c(C#N)c32)C1 [Compound 63, 2-amino-1′-[5-cyano-2-[[1-(morpholinomethyl)cyclopropyl]methoxy]pyrimidin-4-yl]spiro[6,7-dihydro-5H-benzothiophene-4,3′-azetidine]-3-carbonitrile] | 7.00 to 8.00 | 4.00 to 5.00
N#Cc1c(N2C[C@H]3CC[C@@H](C2)N3)nc(OCC2(CN3CCOCC3)COC2)nc1N1CC2(CCc3sc(N)c(C#N)c32)C1 [Compound 64, 2-amino-1′-[5-cyano-2-[[3-(morpholinomethyl)oxetan-3-yl]methoxy]-6-[(1R,5S)-3,8-diazabicyclo[3.2.1]octan-3-yl]pyrimidin-4-yl]spiro[5,6-dihydrocyclopenta[b]thiophene-4,3′-azetidine]-3-carbonitrile] | > 8.00 | 5.00 to 6.00
N#Cc1cnc(OC[C@@]23CCCN2C[C@H](F)C3)nc1N1CC2(CCc3sc(N)c(C#N)c32)C1 [Compound 65, 2-amino-1′-[5-cyano-2-[[(2R,8S)-2-fluoro-1,2,3,5,6,7-hexahydropyrrolizin-8-yl]methoxy]pyrimidin-4-yl]spiro[5,6-dihydrocyclopenta[b]thiophene-4,3′-azetidine]-3-carbonitrile] | 4.70 to 6.00 | 4.00 to 5.00
